Data taken from patent publication US20180265911A1, “TRIPTYCENE DERIVATIVES FOR NUCLEIC ACID JUNCTION STABILIZATION” (THE TRUSTEES OF THE UNIVERSITY OF PENNSYLVANIA, priority 2015, published 2018).

Experiments:
[1] = test system: d(CAG)n(CTG) repeat nucleic acid junction; experiment: Fluorescence quenching assay, TNR 3WJ (Example 5); type: binding; conditions: comparison in words
Method: Fluorescence Quenching Assay: All experiments were conducted in 50 mM sodium phosphate buffer, pH 7.2. Fluorescence measurements were recorded with excitation at 495 nm and emission at 520 nm using 5 nm bandwidths on a Tecan M1000 plate reader. […] Samples were incubated for 2h and measured in triplicate in a 384-well plate.

[2] = test system: DNA 3WJ; experiment: UV thermal melting of DNA 3WJ (Example 1); type: binding; conditions: Example 1 numbering, DNA 3WJ 1 μM, ligand 4 μM, 10 mM CacoK pH 7.2
Method: (§1) An aqueous solution of 10 mM potassium cacodylate (CacoK), pH 7.2 was used as analysis buffer. DNA 3WJ and dsDNA were brought to a final concentration of 1 1.1.1\4 and 2 μM, respectively. Samples were heated to 90° C. for 5 min, cooled to room temperature slowly, then to 4° C. Samples were incubated for 1 hour at room temperature with 3 μL of ligand at a final concentration of 4 μM for DNA 3WJ. The concentration of the ligand was 8 μM for dsDNA. Denaturation was recorded at 260 nm from 5° C. to 90° C. with a heating rate of 0.5° C. min^−1. Upper and lower baselines were used to plot the fraction folded.

[3] = test system: dsDNA; experiment: UV thermal melting of dsDNA (Example 1); type: binding; conditions: Example 1 numbering, dsDNA 2 μM, ligand 8 μM, 10 mM CacoK pH 7.2
Method: as §1

[4] = test system: A2780 cells; experiment: Alamar blue cytotoxicity assay, A2780; type: cell-based, human; conditions: Example 1 numbering, 72 hours, viability shown at 50 μM
Method: (§2) All cell lines were maintained in a humidified incubator at 37° C. in 5% CO2. A2780 and A2780cis cells were cultured in RPMI 1640 (Corning Cellgro) supplemented with 10% fetal bovine serum (Giboc, Life Technologies), 1% L-glutamine (Corning Cellgro), penicillin and streptomycin (Corning Cellgro). Cells were seeded at a density of 2,000 cells/well in culture media (50 pt) in […] plates 24 hours prior to treatment. Cells were treated with DMSO (vehicle control), doxorubicin (positive control, 10 μM final), cisplatin (50 μM to 25 nM), or triptycenes (50 μM to 25 nM) for 72 hours at 37° C. with 5% CO2. DMSO concentrations were kept at 1%. Alamar blue (5 μL) was added and incubated for 4 hours. Fluorescence was measured at 590 nm. The vehicle control was taken as 100% cell viability and doxorubicin was taken as 0% viability.

[5] = test system: A2780cis cells; experiment: Alamar blue cytotoxicity assay, A2780cis; type: cell-based, human
Method: as §2

NCCCCC(N)C(=O)Nc1ccc2c(c1)C1c3ccc(NC(=O)C(N)CCCCN)cc3C2c2cc(NC(=O)C(N)CCCCN)ccc21 [Trip 3 (Example 3), (2S,2'S,2″S)—N,N′,N″-(9,10-dihydro-9,10-[1,2]benzenoanthracene-2,7,15-triyl)tris(2,6-diaminohexanamide)]
relative binding affinity toward the TNR junction [1]: highest affinity

CN(CCCN)CCCNC(=O)c1ccccc1 [Compound 4 (Example 1), N-(3-((3-aminopropyl)(methyl)amino)propyl)benzamide]
ΔTm, stabilization of DNA 3WJ [2]: 2.0 °C | ΔTm, dsDNA [3]: −1.3 °C

CN(C)CCCNC(=O)c1ccc2c(c1)C1c3ccc(C(=O)NCCCN(C)C)cc3C2c2cc(C(=O)NCCCN(C)C)ccc21 [Trip 3 (Example 1), N^2,N^6,N^14-tris(3-(dimethylamino)propyl)-9,10-dihydro-9,10-[1,2]benzenoanthracene-2,6,14-tricarboxamide]
cytotoxicity in A2780 cells [4]: No cytotoxic activity | cytotoxicity in A2780cis cells ([5]; Example 1 numbering, cisplatin-resistant line, Alamar blue, 72 hours, viability shown at 50 μM): No cytotoxic activity

NC(Cc1cnc[nH]1)C(=O)Nc1ccc2c(c1)C1c3ccc(NC(=O)C(N)Cc4cnc[nH]4)cc3C2c2cc(NC(=O)C(N)Cc3cnc[nH]3)ccc21 [Trip 4 (Example 3), (2S,2′S,2″S)—N,N′,N″-(9,10-dihydro-9,10-[1,2]benzenoanthracene-2,7,15-triyl)tris(2-amino-3-(1H-imidazol-5-yl)propanamide)]
relative binding affinity toward the TNR junction [1]: highest affinity

NCCCCCCCNC(=O)c1ccc2c(c1)C1c3ccc(C(=O)NCCCCCCCN)cc3C2c2cc(C(=O)NCCCCCCCN)ccc21 [Trip 2 (Example 1), N^2,N^6,N^14-tris(7-aminoheptyl)-9,10-dihydro-9,10-[1,2]benzenoanthracene-2,6,14-tricarboxamide]
viability of A2780cis cells ([5]; 50 µM): 6%
